IC50 data for 1 molecule are collected here from US20240158393A1, “PYRIDONE COMPOUNDS AND METHODS OF USE” (Exelixis, Inc., priority 2021, published 2024).

Structures are written as SMILES.

This experiment concerns the target T1, Human Mer (Homo sapiens, UniProt Q12866).
T1 construct: Human Mer (residues R557-E882 with H628Q and R794A, 0.7 nM); purchased Eurofins Pharma Discovery Services UK Limited (KinaseProfiler service)
T1 sequence (Q12866 557-882 limits assumed): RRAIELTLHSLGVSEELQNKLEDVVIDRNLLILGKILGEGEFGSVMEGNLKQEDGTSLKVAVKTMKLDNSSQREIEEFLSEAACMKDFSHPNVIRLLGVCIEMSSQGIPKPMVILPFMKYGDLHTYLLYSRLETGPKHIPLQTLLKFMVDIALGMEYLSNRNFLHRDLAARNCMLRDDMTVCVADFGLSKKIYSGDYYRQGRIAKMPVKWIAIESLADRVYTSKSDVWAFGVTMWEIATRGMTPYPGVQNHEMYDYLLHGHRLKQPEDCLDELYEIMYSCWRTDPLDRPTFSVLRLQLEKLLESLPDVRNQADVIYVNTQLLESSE
Briefly: Human Mer kinase assay (33P radiometric / HTRF KinEase). It counts as biochemical. The conditions noted are these: protocols of Examples C-1 and/or C-2. The essentials: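 Two formats yield IC50 values. HTRF KinEase used MER residues 528-999 with ATP at Km (40 μM), 1 μM biotin-peptide, 60 min RT, […], 10 concentrations. 33P filter assay used 0.7 nM Mer R557-E882 (H628Q/R794A), 10 μM ATP, 250 μM peptide, 40 min RT, top 1 μM.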

The molecule `COc1cc2nccc(Oc3ccc(NC(=O)c4c5n(cc(C6=CCOCC6)c4=O)CCOC5)cc3)c2nc1OC` [Compound G1-8, 7-(3,6-Dihydro-2H-pyran-4-yl)-N-[4-[(6,7-dimethoxy-1,5-naphthyridin-4-yl)oxy]phenyl]-8-oxo-3,4-dihydro-1H-pyrido[2,1-c][1,4]oxazine-9-carboxamide] had a half-inhibitory concentration (IC50) of no more than 100 nM.

By IC50 is commonly meant the concentration at which inhibition is half-maximal.
